Source: article PMC5601486, “Identification of 4-phenylquinolin-2(1H)-one as a specific allosteric inhibitor of Akt” (Scientific Reports, 2017)

Tests used:
[1] = test system: Akt T308 phosphorylation; assay: Western blot analysis of T308 phosphorylation; format: cell-based; conditions: Mus musculus, N2a, 0.5 h; Neuro 2A cells, G7 30 min then IGF 30 min
Procedure: The following criteria were applied for hit selection from the primary screen: 1, hits in robust curve classes (1/2/3) with efficacy greater than 30% were considered active; 2, these hits were filtered for donor interference; 3, hits were further filtered by reactive and promiscuous functional groups, as previously described4; 4, hits were clustered by structural similarity using Leadscope Hosted Client (Leadscope Inc., Columbus, […]
Neuro 2A cells were seeded in 12-well plates in DMEM containing 5% FBS for 24 hr.
After overnight serum starvation (in 0% FBS DMEM), cells were incubated for 30 min at 37 °C with G7 or LY294002 or Torin 1 (Sigma Aldrich) at various concentrations, or DMSO control. IGF-1 was added to each well at a final concentration of 100 ng/mL. After 30-min incubation cells were washed with cold PBS and lysed with 50 µL lysis buffer containing 1% Triton X-100 and protease/phosphatase inhibitors (Cell Signaling Technology) or RIPA buffer (Santa Cruz Biotech). […]
anti- GAPDH (14C10) antibody (#2118) (all antibodies were from Cell Signaling Technology unless indicated, 1:1000 dilution was used) at 4°C overnight, washed three times with TBS-T, then incubated with peroxidase-conjugated secondary antibody (Sigma-Aldrich) for 1 hr at room temperature. […] Band intensity was quantitated using Kodak 1D imaging analysis software. […]

[2] = test system: ACVR1; assay: KINOMEscan; conditions: 50000 nM
Procedure: KINOMEscan™ selectivity screen
(§1) The assay was perfor med at DiscoveRx Corporation according the methods published previously5. Briefly, Kinase-tagged T7 phage strains were grown in parallel in an E. coli host derived from the BL21 strain. E. coli were grown to log-phase and infected with T7 phage from a frozen stock and incubated with shaking at 32°C until lysis (90-150 minutes). The kinases were produced in HEK-293 cells and subsequently tagged with DNA for qPCR detection. Streptavidin-coated magnetic beads were treated with biotinylated small molecule ligands to generate affinity resins for kinase
(§2) inhibitor or DMSO control was performed in polypropylene 384-well plates for 1 hr at room temperature. After wash with PBS buffer containing 0.05% Tween 20, the beads were incubated in elution buffer (PBS containing 0.05 % Tween 20 and 0.5 μM non-biotinylated affinity ligand) for 30 minutes at room temperature. The kinase concentration in the eluates was measured by qPCR.

[3] = test system: MAP4K4; assay: KINOMEscan; conditions: 50000 nM
Procedure: KINOMEscan™ selectivity screen
as §1, §2

[4] = test system: MRCKA; assay: KINOMEscan; conditions: 50000 nM
Procedure: KINOMEscan™ selectivity screen
as §1, §2

[5] = test system: NEK5; assay: KINOMEscan; conditions: 50000 nM
Procedure: KINOMEscan™ selectivity screen
as §1, §2

[6] = test system: PIK3CD; assay: KINOMEscan; conditions: 50000 nM
Procedure: KINOMEscan™ selectivity screen
as §1, §2

[7] = test system: TGFBR1; assay: KINOMEscan; conditions: 50000 nM
Procedure: KINOMEscan™ selectivity screen
as §1, §2

[8] = test system: TIE2; assay: KINOMEscan; conditions: 50000 nM
Procedure: KINOMEscan™ selectivity screen
as §1, §2

[9] = test system: ZAP70; assay: KINOMEscan; conditions: 50000 nM
Procedure: KINOMEscan™ selectivity screen
(§3) Briefly, Kinase-tagged T7 phage strains were grown in parallel in an E. coli host derived from the BL21 strain. E. coli were grown to log-phase and infected with T7 phage from a frozen stock and incubated with shaking at 32°C until lysis (90-150 minutes). The kinases were produced in HEK-293 cells and subsequently tagged with DNA for qPCR detection. Streptavidin-coated magnetic beads were treated with biotinylated small molecule ligands to generate affinity resins for kinase
as §2

[10] = test system: CDK9; assay: KINOMEscan; conditions: 50000 nM
Procedure: KINOMEscan™ selectivity screen
as §3, §2

[11] = test system: LIMK2; assay: KINOMEscan; conditions: 50000 nM
Procedure: KINOMEscan™ selectivity screen
as §1, §2

[12] = test system: MET(M1250T); assay: KINOMEscan; conditions: 50000 nM
Procedure: KINOMEscan™ selectivity screen
(§4) The assay was perfor med at DiscoveRx Corporation according the methods published previously5. […] The kinases were produced in HEK-293 cells and subsequently tagged with DNA for qPCR detection. Streptavidin-coated magnetic beads were treated with biotinylated small molecule ligands to generate affinity resins for kinase
as §2

[13] = test system: CDK4-cyclinD1; assay: KINOMEscan; conditions: 50000 nM
Procedure: KINOMEscan™ selectivity screen
as §1, §2

[14] = test system: ABL1(F317L)-nonphosphorylated; assay: KINOMEscan; conditions: 50000 nM
Procedure: KINOMEscan™ selectivity screen
as §1, §2

[15] = test system: CAMKK2; assay: KINOMEscan; conditions: 50000 nM
Procedure: KINOMEscan™ selectivity screen
as §1, §2

[16] = test system: EPHA6; assay: KINOMEscan; conditions: 50000 nM
Procedure: KINOMEscan™ selectivity screen
as §3, §2

[17] = test system: CAMK2A; assay: KINOMEscan; conditions: 50000 nM
Procedure: KINOMEscan™ selectivity screen
as §1, §2

[18] = test system: QSK; assay: KINOMEscan; conditions: 50000 nM
Procedure: KINOMEscan™ selectivity screen
as §1, §2

[19] = test system: PDPK1; assay: KINOMEscan; conditions: 50000 nM
Procedure: KINOMEscan™ selectivity screen
as §1, §2

[20] = test system: PRKCQ; assay: KINOMEscan; conditions: 50000 nM
Procedure: KINOMEscan™ selectivity screen
as §1, §2

[21] = test system: CSNK2A1; assay: KINOMEscan; conditions: 50000 nM
Procedure: KINOMEscan™ selectivity screen
as §1, §2

[22] = test system: DLK; assay: KINOMEscan; conditions: 50000 nM
Procedure: KINOMEscan™ selectivity screen
as §1, §2

[23] = test system: SIK2; assay: KINOMEscan; conditions: 50000 nM
Procedure: KINOMEscan™ selectivity screen
as §3, §2

[24] = test system: TRPM6; assay: KINOMEscan; conditions: 50000 nM
Procedure: KINOMEscan™ selectivity screen
as §3, §2

[25] = test system: MINK; assay: KINOMEscan; conditions: 50000 nM
Procedure: KINOMEscan™ selectivity screen
as §1, §2

[26] = test system: GRK1; assay: KINOMEscan; conditions: 50000 nM
Procedure: KINOMEscan™ selectivity screen
as §1, §2

[27] = test system: MUSK; assay: KINOMEscan; conditions: 50000 nM
Procedure: KINOMEscan™ selectivity screen
The kinases were produced in HEK-293 cells and subsequently tagged with DNA for qPCR detection. Streptavidin-coated magnetic beads were treated with biotinylated small molecule ligands to generate affinity resins for kinase
as §2

[28] = test system: IRAK3; assay: KINOMEscan; conditions: 50000 nM
Procedure: KINOMEscan™ selectivity screen
as §3, §2

[29] = test system: PIKFYVE; assay: KINOMEscan; conditions: 50000 nM
Procedure: KINOMEscan™ selectivity screen
as §3, §2

[30] = test system: TYK2(JH1domain-catalytic); assay: KINOMEscan; conditions: 50000 nM
Procedure: KINOMEscan™ selectivity screen
as §1, §2

[31] = test system: ROCK1; assay: KINOMEscan; conditions: 50000 nM
Procedure: KINOMEscan™ selectivity screen
as §3, §2

[32] = test system: PAK7; assay: KINOMEscan; conditions: 50000 nM
Procedure: KINOMEscan™ selectivity screen
as §1, §2

[33] = test system: ABL1(Y253F)-phosphorylated; assay: KINOMEscan; conditions: 50000 nM
Procedure: KINOMEscan™ selectivity screen
as §1, §2

[34] = test system: GRK7; assay: KINOMEscan; conditions: 50000 nM
Procedure: KINOMEscan™ selectivity screen
as §4, §2

[35] = test system: KIT(V559D); assay: KINOMEscan; conditions: 50000 nM
Procedure: KINOMEscan™ selectivity screen
as §3, §2

[36] = test system: RSK2(Kin.Dom.1-N-terminal); assay: KINOMEscan; conditions: 50000 nM
Procedure: KINOMEscan™ selectivity screen
as §1, §2

Q: What does the source list for `Oc1cc(-c2ccccc2)c2ccccc2n1` [G7, 4-phenylquinolin-2(1H)-one]?
A: IC50 [1]: 4.9 µM; Percent Control [2]: 100%; Percent Control [3]: 100%; Percent Control [4]: 100%; Percent Control [5]: 100%; Percent Control [6]: 100%; Percent Control [7]: 100%; Percent Control [8]: 100%; Percent Control [9]: 100%; Percent Control [10]: 99%; Percent Control [11]: 97%; Percent Control [12]: 96%; Percent Control [13]: 95%; Percent Control [14]: 94%; Percent Control [15]: 90%; Percent Control [16]: 88%; Percent Control [17]: 87%; Percent Control [18]: 85%; Percent Control [19]: 81%; Percent Control [20]: 81%; Percent Control [21]: 78%; Percent Control [22]: 78%; Percent Control [23]: 78%; Percent Control [24]: 78%; Percent Control [25]: 77%; Percent Control [26]: 75%; Percent Control [27]: 75%; Percent Control [28]: 74%; Percent Control [29]: 74%; Percent Control [30]: 72%; Percent Control [31]: 69%; Percent Control [32]: 57%; Percent Control [33]: 56%; Percent Control [34]: 52%; Percent Control [35]: 20%; Percent Control [36]: 17%
